In one assay the target is T1, Jack bean α-mannosidase (Canavalia ensiformis, UniProt C0HJB3).
T1 construct: purchased Sigma-Aldrich Co
T1 sequence (C0HJB3 1-981): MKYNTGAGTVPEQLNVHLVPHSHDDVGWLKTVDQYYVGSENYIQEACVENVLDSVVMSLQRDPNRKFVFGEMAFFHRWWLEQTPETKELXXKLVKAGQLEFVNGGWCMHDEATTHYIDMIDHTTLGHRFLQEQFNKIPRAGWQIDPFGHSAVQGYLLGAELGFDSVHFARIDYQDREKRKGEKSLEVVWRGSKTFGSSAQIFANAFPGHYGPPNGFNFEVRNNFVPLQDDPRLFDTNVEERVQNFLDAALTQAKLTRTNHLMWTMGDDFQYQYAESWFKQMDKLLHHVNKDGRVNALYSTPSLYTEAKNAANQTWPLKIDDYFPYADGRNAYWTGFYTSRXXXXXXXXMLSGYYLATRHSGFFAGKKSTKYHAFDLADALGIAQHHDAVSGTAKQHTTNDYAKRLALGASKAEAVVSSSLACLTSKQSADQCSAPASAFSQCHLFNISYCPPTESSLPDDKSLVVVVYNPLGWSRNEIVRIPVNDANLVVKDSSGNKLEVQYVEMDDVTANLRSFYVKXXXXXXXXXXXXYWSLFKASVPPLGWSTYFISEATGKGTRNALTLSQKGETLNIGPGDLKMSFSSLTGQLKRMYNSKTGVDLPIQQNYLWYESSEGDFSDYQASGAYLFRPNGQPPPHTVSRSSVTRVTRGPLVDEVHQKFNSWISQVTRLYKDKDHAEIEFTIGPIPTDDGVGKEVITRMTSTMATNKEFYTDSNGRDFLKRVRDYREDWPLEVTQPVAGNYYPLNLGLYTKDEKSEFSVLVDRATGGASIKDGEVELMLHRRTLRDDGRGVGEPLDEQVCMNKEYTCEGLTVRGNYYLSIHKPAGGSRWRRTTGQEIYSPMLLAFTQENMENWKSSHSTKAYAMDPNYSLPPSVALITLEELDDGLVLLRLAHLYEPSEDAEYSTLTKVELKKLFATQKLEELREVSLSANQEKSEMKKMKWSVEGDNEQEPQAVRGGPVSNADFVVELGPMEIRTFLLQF
As to the kind of experiment: Glycosidase inhibition, Jack bean α-mannosidase. The assay is classed as biochemical. From the text: (§1) Glycosidase modulation studies need to explore selectivity as well as potency. Our drugs and controls are therefore screened against a panel of glycosidases in methanol (Table 1) to identify the glycosidase-related disease area(s), selectivity profile, and potency of biological action for each drug. The presence of organic boron covalently bonded to the drug structure also grants a reduced toxicity profile. Following the glycosidase inhibition range recommendations, an IC50 value >250 μm denotes weak inhibition, 100–249 μm denotes moderate inhibition, 10–99 μm good inhibition, 0.1–9 μm potent inhibition, and <0.1 μm very potent inhibition. […] Our boronated D-galactose 7 represents a novel lead in glycosidase inhibition.
(§2) The glycosidases screened are the following: rice α-glucosidase, yeast α-glucosidase, Bacillus α-glucosidase, rat intestinal maltase α-glucosidase, almond β-glucosidase, bovine liver β-glucosidase, coffee beans α-galactosidase, bovine liver β-galactosidase, Jack bean α-mannosidase, snail β-mannosidase, Penicillium decumbens α-L-rhamnosidase, bovine kidney α-L-fucosidase, Eschierichia coli β-glucuronidase, bovine liver β-glucuronidase, porcine kidney trehalase, Aspergillus niger amyloglucosidase, and bovine kidney N-acetyl-β-glucosaminidase. The disease areas for each glycosidase are summarized in [1].
(§3) The enzymes α-glucosidase (from yeast), β-glucosidases (from almond and bovine liver), α-galactosidase (from coffee beans), β-galactosidase (from bovine liver), α-mannosidase (from Jack bean), β-mannosidase (from snail), α-L-rhamnosidase (from Penicillium decumbens), α-L-fucosidase (from bovine kidney), trehalase (from porcine kidney), β-glucuronidases (from E. coli and bovine liver), amyloglucosidase (from A. niger), para-nitrophenyl glycosides, and various disaccharides were purchased from Sigma-Aldrich Co.
(§4) Brush border membranes were prepared from the rat small intestine according to the method of Kessler et al. and were assayed at pH 6.8 for rat intestinal maltase using maltose. For rat intestinal maltase, porcine kidney trehalase, and A. niger amyloglucosidase activities, the reaction mixture contained 25 mM maltose and the appropriate amount of enzyme, and the incubations were performed for 10–30 min at 37 °C. The reaction was stopped by heating at 100 °C for 3 min. After centrifugation (600 g; 10 min), the resulting reaction mixture was added to the Glucose CII-test Wako (Wako Pure Chemical Ind., Osaka, Japan). The absorbance at 505 nm was measured to determine the amount of the released D-glucose. Other glycosidase activities were determined using an appropriate para-nitrophenyl glycoside as substrate at the optimum pH of each enzyme. The reaction mixture contained 2 mM of the substrate and the appropriate amount of enzyme. The reaction was stopped by the addition of 400 mM Na2CO3. The released para-nitrophenol was measured spectrometrically at 400 nm. All reactions run in methanol.

Assay [1] concerns MiaPaCa-2 (pancreatic carcinoma). Description: Cancer screening (MTT growth inhibition), MIA-Pa-Ca2. The assay is classed as cell-based. Conditions: 72 h; for Percentage (%) cell growth inhibition: 25 µM of drug; for Percentage (%) cell growth inhibition / inhibition at 25 µM: n = 3, mean ± SEM; for inhibition at 25 µM: MIA PaCa-2, 25 µM of drug, read-out: Percentage (%) cell growth inhibition. The method, then:
All test agents were prepared as stock solutions (20 mM) in dimethyl sulfoxide (DMSO) and stored at −20 °C. Cell lines used in the study included: HT29 (colorectal carcinoma), U87 and SJ-G2 (glioblastoma), MCF-7 (breast carcinoma), A2780 (ovarian carcinoma), H460 (lung carcinoma), A431 (skin carcinoma), Du145 (prostate carcinoma), BE2-C (neuroblastoma), MiaPaCa-2 (pancreatic carcinoma), SMA560 (spontaneous murine astrocytoma), and ADDP (Cis Res Ovarian), together with one non-tumor-derived normal breast cell line (MCF10A). All cell lines were incubated in a humidified atmosphere with 5 % CO2 at 37 °C. The cancer cell lines were maintained in Dulbecco’s modified Eagle’s medium (DMEM; Sigma, Australia) supplemented with fetal bovine serum (10%), sodium pyruvate (10 mM), penicillin (100 IUmL^−1), streptomycin (100 µg mL^−1), and L-glutamine (2 mM).
Growth inhibition was determined by plating cells in duplicate in medium (100 µL) at a density of 2500–4000 cells per well in 96-well plates. On day 0 (24 h after plating), when the cells are in logarithmic growth, medium (100 µL) with or without the test agent was added to each well. After 72 h of drug exposure, growth inhibitory effects were evaluated using the (3-(4,5-dimethyltiazol-2-yl)-2,5-diphenyltetrazolium bromide) (MTT) assay and absorbance read at 540 nm. The percentage growth inhibition was calculated at a fixed concentration of 25 µM, based on the difference between the optical density values on day 0 and those at the end of drug exposure. Each data point is the mean ± the standard error of the mean (SEM) calculated from three replicates, which were performed on separate occasions and in separate cell line passages.

For a further assay, the target named is T2, E. coli β-glucuronidase (Escherichia coli, UniProt P05804).
T2 construct: purchased Sigma-Aldrich Co
T2 sequence (P05804 whole entry): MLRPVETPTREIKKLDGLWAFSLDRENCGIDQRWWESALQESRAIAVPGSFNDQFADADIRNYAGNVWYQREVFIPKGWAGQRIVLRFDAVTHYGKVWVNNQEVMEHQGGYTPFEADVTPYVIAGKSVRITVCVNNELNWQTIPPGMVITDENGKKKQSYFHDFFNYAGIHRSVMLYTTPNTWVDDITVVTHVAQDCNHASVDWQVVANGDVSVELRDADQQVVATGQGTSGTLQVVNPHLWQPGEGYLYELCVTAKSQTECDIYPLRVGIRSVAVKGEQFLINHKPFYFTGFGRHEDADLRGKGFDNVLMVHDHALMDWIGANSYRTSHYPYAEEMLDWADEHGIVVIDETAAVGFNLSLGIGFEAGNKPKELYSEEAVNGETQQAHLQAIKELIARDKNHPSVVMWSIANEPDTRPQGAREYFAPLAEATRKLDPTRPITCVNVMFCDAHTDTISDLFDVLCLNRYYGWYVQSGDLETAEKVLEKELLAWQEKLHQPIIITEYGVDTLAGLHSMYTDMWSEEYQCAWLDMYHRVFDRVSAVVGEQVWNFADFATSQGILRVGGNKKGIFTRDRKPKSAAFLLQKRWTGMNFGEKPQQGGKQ
As to the kind of experiment: Glycosidase inhibition, E. coli β-glucuronidase. The assay is classed as biochemical.
Source text: as §1, §2, §3, §4

Assay [2] has as its system bovine liver β-glucosidase. Description: Glycosidase inhibition, bovine liver β-glucosidase. The assay is classed as biochemical. Conditions: for inhibition %: in methanol.
Source text: as §1, §2, §3, §4

The test system of assay [3] is bovine liver β-galactosidase. As to the kind of experiment: Glycosidase inhibition, bovine liver β-galactosidase. The assay is classed as biochemical. Conditions: for inhibition %: in methanol.
Source text: as §1, §2, §3, §4

The mark [4] stands for this setting: at 100 μM, in methanol, read-out: inhibition %.
Where [5] appears, read: at 100 μM, read-out: NI: No inhibition.
Setting [6] is: at 1000 μM, in methanol, read-out: inhibition %.
Setting [7] is: at 1000 μM, read-out: NI: No inhibition.

Like-named read-outs stand apart in the source and are kept apart here.

Consider Borocaptate sodium [BSH], for which the “NI: No inhibition” value (on Jack bean α-mannosidase (at 1000 μM); in assay [2] (at 1000 μM); in assay [3] (at 1000 μM)) was “NI (No inhibition (less than 50% inhibition at 1000 μM))” each time. Besides, the inhibition % against Jack bean α-mannosidase (at 1000 μM, in methanol) was found to be 7.9%; on E. coli β-glucuronidase (at 1000 μM, in methanol), 6%; in assay [2] (at 1000 μM), 15%; in assay [3] (at 1000 μM), 0%. Besides, the “Percentage (%) cell growth inhibition” value in assay [1] amounted to 2 ± 6%.
In general, inhibition refers to the percentage by which the read-out fell short of the control. As for `N[C@@H](Cc1ccc(B(O)O)cc1)C(=O)O` [BPA, 4-borono-L-phenylalanine], the inhibition at 100 µM at Jack bean α-mannosidase (setting [4]) was 1.1%; on Jack bean α-mannosidase (setting [5]) it was less than 50%; at E. coli β-glucuronidase (setting [4]), 0.5%; at E. coli β-glucuronidase (setting [5]) it was less than 50%. Further, the inhibition at 25 µM in assay [1] (Homo sapiens) came out at 3 ± 3%. Further, the “NI: No inhibition” value in assay [2] (at 100 μM) and in assay [3] (at 100 μM) was “NI (No inhibition (less than 50% inhibition at 100 μM))” each time. For the same molecule, the inhibition % is 0% in assay [2] (at 100 μM) and 10.9% in assay [3] (at 100 μM).
With `CC1(C)OCC(C2OC3OC(C)(C)OC3C2[B-]23OCC[NH+]2CCO3)O1` [Compound 6, 3-Deoxy-3-Boronodiethanolamine-1,2:5,6-Di-O-isopropylidene-α-D-galactofuranose], the inhibition at 100 µM at Jack bean α-mannosidase (setting [4]) was 0%; at Jack bean α-mannosidase (setting [5]), less than 50%; at E. coli β-glucuronidase (setting [4]), 3.5%; on E. coli β-glucuronidase (setting [5]) it was less than 50%. Besides, in assay [1] (Homo sapiens), the inhibition at 25 µM amounted to 3 ± 1%. Also, the “NI: No inhibition” value in assay [2] (at 100 μM) and in assay [3] (at 100 μM) was “NI (No inhibition (less than 50% inhibition at 100 μM))” each time. Besides, the inhibition % is 12.2% in assay [2] (at 100 μM) and 16.3% in assay [3] (at 100 μM).
Turning to `OCC1OC(O)C(O)C(B(O)O)C1O` [Compound 7, 3-Boronic-3-Deoxy-D-galactose], the inhibition at 1000 µM at Jack bean α-mannosidase (setting [6]) is 0%; at Jack bean α-mannosidase (setting [7]), less than 50%; on E. coli β-glucuronidase (setting [6]), 3.7%; on E. coli β-glucuronidase (setting [7]), less than 50%. Also, the inhibition at 25 µM in assay [1] (Homo sapiens) stood at 1 ± 2%. Also, the GI50 in assay [1] (Homo sapiens, MIA PaCa-2, dose response, read-out: GI50 = Concentration that inhibits cell growth by 50%) was greater than 50 µM. The “NI: No inhibition” value in assay [2] (at 1000 μM) and in assay [3] (at 1000 μM) was “NI (No inhibition (less than 50% inhibition at 1000 μM))” in each case. The inhibition % in assay [2] (at 1000 μM) worked out at 12.6%; in assay [3] (at 1000 μM), 40.7%.
`N[C@@H](Cc1ccc(B(O)O)cc1)C(=O)O` [^10B-BPA]: the “NI: No inhibition” value (at Jack bean α-mannosidase (at 100 μM); in assay [2] (at 100 μM); in assay [3] (at 100 μM)) was “NI (No inhibition (less than 50% inhibition at 100 μM))” each time. The inhibition % against Jack bean α-mannosidase (at 100 μM, in methanol) turned out to be 0%; against E. coli β-glucuronidase (at 100 μM, in methanol) it was 2.4%; in assay [2] (at 100 μM), 14.2%; in assay [3] (at 100 μM), 0%. In addition, the “Percentage (%) cell growth inhibition” value in assay [1] is recorded as 11 ± 3%.

(Values after publication PMC10254170, “Diastereoselective Synthesis of the Borylated D-Galactose Monosaccharide 3-Boronic-3-Deoxy-D-Galactose and Biological Evaluation in Glycosidase Inhibition and in Cancer for Boron Neutron Capture Therapy (BNCT)” (Molecules, 2023).)
